Measured values: patent US10287301B2 (Achillion Pharmaceuticals, Inc., priority 2015, dated 2019)

Molecular target: Human Factor D (Homo sapiens (Human), UniProt P00746)
Experiment: Human Factor D Assay
Format: biochemical
Conditions: Human Factor D assay of Example 8; Table 2; read-out: IC50
Method in brief: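 IC50 values derive from nonlinear regression of Factor D reaction rates against compound concentration. The enzyme, purified from human serum, is used at 80 nM final with a 5 min room-temperature compound preincubation in 50 mM Tris, 1M NaCl, pH 7.5, before 100 μM Z-L-Lys-SBzl plus 100 μM DTNB are added.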

Human Factor D, sequence (P00746 26-253): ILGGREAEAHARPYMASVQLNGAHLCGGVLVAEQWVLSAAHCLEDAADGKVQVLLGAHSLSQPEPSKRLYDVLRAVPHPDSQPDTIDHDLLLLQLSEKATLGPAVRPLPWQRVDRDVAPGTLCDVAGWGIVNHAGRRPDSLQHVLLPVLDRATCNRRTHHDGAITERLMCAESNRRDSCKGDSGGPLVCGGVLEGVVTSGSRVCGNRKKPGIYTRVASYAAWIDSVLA

| SMILES | IC50 [µM] |
| --- | --- |
| CCOC(=O)c1cc2ncc(-c3ccc4c(c3)c(C(C)=O)nn4CC(=O)N3C[C@H](F)C[C@H]3C(=O)Nc3cccc(Br)n3)cn2n1 [Compound 287, ethyl 6-(3-acetyl-1-(2-((2S,4R)-2-(6-bromopyridin-2-ylcarbamoyl)-4-fluoropyrrolidin-1-yl)-2-oxoethyl)-1H-indazol-5-yl)pyrazolo[1,5-a]pyrimidine-2-carboxylate] | < 1 |
| CC(=O)c1nn(CC(=O)N2C[C@H](F)C[C@H]2C(=O)Nc2cccc(Br)n2)c2ccc(-c3cnc4cc(C(N)=O)nn4c3)cc12 [Compound 288, 6-(3-Acetyl-1-(2-((2S,4R)-2-((6-Bromopyridin-2-yl)carbamoyl)-4-fluoropyrrolidin-1-yl)-2-oxoethyl)-1H-indazol-5-yl)pyrazolo[1,5-a]pyrimidine-2-carboxamide] | < 1 |
| CC(=O)c1nn(CC(=O)N2C[C@H](F)C[C@H]2C(=O)Nc2cccc(Br)n2)c2ccc(-c3cnc4cc(C(=O)O)nn4c3)cc12 [Compound 289, 6-(3-acetyl-1-(2-((2S,4R)-2-(6-bromopyridin-2-ylcarbamoyl)-4-fluoropyrrolidin-1-yl)-2-oxoethyl)-1H-indazol-5-yl)pyrazolo[1,5-a]pyrimidine-2-carboxylic acid] | < 1 |
| COCCOCCNC(=O)c1cc2ncc(-c3ccc4c(c3)c(C(C)=O)nn4CC(=O)N3C[C@H](F)C[C@H]3C(=O)Nc3cccc(Br)n3)cn2n1 [Compound 290, 6-(3-acetyl-1-(2-((2S,4R)-2-(6-bromopyridin-2-ylcarbamoyl)-4-fluoropyrrolidin-1-yl)-2-oxoethyl)-1H-indazol-5-yl)-N-(2-(2-methoxyethoxy)ethyl)pyrazolo[1,5-a]pyrimidine-2-carboxamide] | < 1 |
| CC(=O)c1nn(CC(=O)N2C[C@H](F)C[C@H]2C(=O)Nc2cccc(Br)n2)c2ccc(-c3n[nH]c4ccsc34)cc12 [Compound 291, (2S,4R)-1-(2-(3-Acetyl-5-(1H-thieno[3,2-c]pyrazol-3-yl)-1H-indazol-1-yl)acetyl)-N-(6-bromopyridin-2-yl)-4-fluoropyrrolidine-2-carboxamide] | < 1 |
| CC(=O)n1cc(NC(=O)N2C[C@H](F)C[C@H]2C(=O)Nc2cccc(Br)n2)c2ccc(-c3cnc(C)nc3)cc21 [Compound 292, (2S,4R)-N1-(1-acetyl-6-(2-methylpyrimidin-5-yl)-1H-indol-3-yl)-N2-(6-bromopyridin-2-yl)-4-fluoropyrrolidine-1,2-dicarboxamide] | < 1 |
| CC(=O)n1cc(NC(=O)N2C[C@H](F)C[C@H]2C(=O)Nc2cccc(-c3ccccc3Cl)c2F)c2ccc(-c3cnc(C)nc3)cc21 [Compound 293] | < 1 |
| CC(=O)c1nn(CC(=O)N2CC=C[C@H]2C(=O)Nc2cccc(Br)n2)c2ccc(-c3cnc(C)nc3)cc12 [Compound 294, (S)-1-(2-(3-acetyl-5-(2-methylpyrimidin-5-yl)-1H-indazol-1-yl)acetyl)-N-(6-bromopyridin-2-yl)-2,5-dihydro-1H-pyrrole-2-carboxamide] | < 1 |
| CC(=O)c1nn(CC(=O)N2C[C@H](F)C[C@H]2C(=O)Nc2cccc(-c3cccc(S(C)(=O)=O)c3)c2F)c2ccc(-c3cnc(C)nc3)cc12 [Compound 295, (2S,4R)-1-(2-(3-Acetyl-5-(2-methylpyrimidin-5-yl)-1H-indazol-1-yl)acetyl)-4-fluoro-N-(2-fluoro-3′-(methylsulfonyl)-[1,1′-biphenyl]-3-yl)pyrrolidine-2-carboxamide] | < 1 |
| CC(=O)c1nn(CC(=O)N2C[C@H](F)C[C@H]2C(=O)Nc2cccc(-c3ccccc3Cl)c2F)c2ccc(-c3cnc4cc(C)nn4c3)cc12 [Compound 296, (2S,4R)-1-(2-(3-acetyl-5-(2-methylpyrazolo[1,5-a]pyrimidin-6-yl)-1H-indazol-1-yl)acetyl)-N-(2′-chloro-2-fluorobiphenyl-3-yl)-4-fluoropyrrolidine-2-carboxamide] | < 1 |
| CC(=O)c1nn(CC(=O)N2C[C@H](F)C[C@H]2C(=O)Nc2cccc(Br)n2)c2ccc(-c3nc4c(s3)CCCC4)cc12 [Compound 297] | > 10 |
| CC(=O)c1cn(CC(=O)N2[C@@H]3C[C@@H]3C[C@H]2C(=O)Nc2cccc(Br)n2)c2ccc(-c3cnc4cc(C)nn4c3)cc12 [Compound 298, (1R,3S,5R)-2-(2-(3-acetyl-5-(2-methylpyrazolo[1,5-a]pyrimidin-6-yl)-1H-indol-1-yl)acetyl)-N-(6-bromopyridin-2-yl)-2-azabicyclo[3.1.0] hexane-3-carboxamide] | < 1 |
| CC(=O)c1cn(CC(=O)N2C[C@H](F)C[C@H]2C(=O)NCc2cccc(Cl)c2F)c2ccc(-c3cnc4cc(C)nn4c3)cc12 [Compound 299, (2S,4R)-1-(2-(3-acetyl-5-(2-methylpyrazolo[1,5-a]pyrimidin-6-yl)-1H-indol-1-yl)acetyl)-N-(3-chloro-2-fluorobenzyl)-4-fluoropyrrolidine-2-carboxamide] | < 1 |
| CC(=O)c1cn(CC(=O)N2C[C@H](F)C[C@H]2C(=O)Nc2cccc(-c3ccccc3Cl)c2F)c2ccc(-c3cnc4cc(C)nn4c3)cc12 [Compound 300, (2S,4R)-1-(2-(3-acetyl-5-(2-methylpyrazolo[1,5-a]pyrimidin-6-yl)-1H-indol-1-yl)acetyl)-N-(2′-chloro-2-fluorobiphenyl-3-yl)-4-fluoropyrrolidine-2-carboxamide] | < 1 |
| CC(=O)c1cn(CC(=O)N2C[C@H](F)C[C@H]2C(=O)Nc2cccc(C(F)(F)F)n2)c2ccc(-c3cnc4cc(C)nn4c3)cc12 [Compound 301, (2S,4R)-1-(2-(3-acetyl-5-(2-methylpyrazolo[1,5-a]pyrimidin-6-yl)-1H-indol-1-yl)acetyl)-4-fluoro-N-(6-(trifluoromethyl)pyridin-2-yl)pyrrolidine-2-carboxamide] | < 1 |
| CC(=O)c1nn(CC(=O)N2C[C@H](F)C[C@H]2C(=O)Nc2cccc(Br)n2)c2ccc(-c3cnc4cccnn34)cc12 [Compound 302, (2S,4R)-1-(2-(3-acetyl-5-(imidazo[1,2-b]pyridazin-3-yl)-1H-indazol-1-yl)acetyl)-N-(6-bromopyridin-2-yl)-4-fluoropyrrolidine-2-carboxamide] | < 1 |
| CC(=O)c1nn(CC(=O)N2C[C@H](F)C[C@H]2C(=O)Nc2cccc(Br)n2)c2ccc(-c3ccc4nccn4n3)cc12 [Compound 303, (2S,4R)-1-(2-(3-acetyl-5-(imidazo[1,2-b]pyridazin-6-yl)-1H-indazol-1-yl)acetyl)-N-(6-bromopyridin-2-yl)-4-fluoropyrrolidine-2-carboxamide] | < 1 |
| CC(=O)c1nn(CC(=O)N2C[C@H](F)C[C@H]2C(=O)Nc2cccc(Br)n2)c2ccc(-c3cnn4ccnc4c3)cc12 [Compound 304, (2S,4R)-1-(2-(3-acetyl-5-(imidazo[1,2-b]pyridazin-7-yl)-1H-indazol-1-yl)acetyl)-N-(6-bromopyridin-2-yl)-4-fluoropyrrolidine-2-carboxamide] | < 1 |
| CC(=O)c1nn(CC(=O)N2C[C@H](F)C[C@H]2C(=O)Nc2cccc(-c3cc(F)ccc3S(C)(=O)=O)c2F)c2ccc(-c3cnc(C)nc3)cc12 [Compound 305, (2S,4R)-1-(2-(3-Acetyl-5-(2-methylpyrimidin-5-yl)-1H-indazol-1-yl)acetyl)-N-(2,5′-difluoro-2′-(methylsulfonyl)-[1,1′-biphenyl]-3-yl)-4-fluoropyrrolidine-2-carboxamide] | < 1 |
| CC(=O)c1nn(CC(=O)N2C[C@H](F)C[C@H]2C(=O)Nc2cncc(Br)n2)c2ccc(-c3cnc4cc(C)nn4c3)cc12 [Compound 306, (2S,4R)-1-(2-(3-acetyl-5-(2-methylpyrazolo[1,5-a]pyrimidin-6-yl)-1H-indazol-1-yl)acetyl)-N-(6-bromopyrazin-2-yl)-4-fluoropyrrolidine-2-carboxamide] | < 1 |
| Cc1ncc(-c2ccc3c(c2)c(C(N)=O)cn3CC(=O)N2C[C@H](F)C[C@H]2C(=O)Nc2cccc(Br)n2)cn1 [Compound 307, 1-(2-((2S,4R)-2-(6-bromopyridin-2-ylcarbamoyl)-4-fluoropyrrolidin-1-yl)-2-oxoethyl)-5-(2-methylpyrimidin-5-yl)-1H-indole-3-carboxamide] | < 1 |
| CC(=O)c1nn(CC(=O)N2CCS[C@H]2C(=O)Nc2cccc(Br)n2)c2ccc(-c3cnc(C)nc3)cc12 [Compound 308, (S)-3-(2-(3-acetyl-5-(2-methylpyrimidin-5-yl)-1H-indazol-1-yl)acetyl)-N-(6-bromopyridin-2-yl)thiazolidine-2-carboxamide] | < 1 |
| CC(=O)c1nn(CC(=O)N2C[C@H](F)C[C@H]2C(=O)Nc2cccc(Br)n2)c2ccc(-c3cnc4n3CCCC4)cc12 [Compound 309, (2S,4R)-1-(2-(3-acetyl-5-(5,6,7,8-tetrahydroimidazo [1,2-a]pyridin-3-yl)-1H-indazol-1-yl)acetyl)-N-(6-bromopyridin-2-yl)-4-fluoropyrrolidine-2-carboxamide] | < 1 |
| CC(=O)c1cn(CC(=O)N2C[C@H](F)C[C@H]2C(=O)Nc2cncc(Br)n2)c2ccc(-c3cnc4cc(C)nn4c3)cc12 [Compound 310, (2S,4R)-1-(2-(3-acetyl-5-(2-methylpyrazolo[1,5-a]pyrimidin-6-yl)-1H-indol-1-yl)acetyl)-N-(6-bromopyrazin-2-yl)-4-fluoropyrrolidine-2-carboxamide] | < 1 |
| CC(=O)c1nn(CC(=O)N2C[C@H](F)C[C@H]2C(=O)Nc2cccc(Br)n2)c2ccc(-c3ccc4nc(C)nn4c3)cc12 [Compound 311, (2S,4R)-1-(2-(3-acetyl-5-(2-methyl-[1,2,4]triazolo[1,5-a]pyridin-6-yl)-1H-indazol-1-yl)acetyl)-N-(6-bromopyridin-2-yl)-4-fluoropyrrolidine-2-carboxamide] | < 1 |
| CC(=O)c1nn(CC(=O)N2CSC[C@H]2C(=O)Nc2cccc(Br)n2)c2ccc(-c3cnc(C)nc3)cc12 [Compound 312, (R)-3-(2-(3-acetyl-5-(2-methylpyrimidin-5-yl)-1H-indazol-1-yl)acetyl)-N-(6-bromopyridin-2-yl)thiazolidine-4-carboxamide] | < 1 |
